# From patent US9463337B2, “Multifunctional hair color protector” (GALAXY SURFACTANTS LTD., priority 2013, dated 2016)
# Experiments:
# [1] = Zeta potential, Malvern Zetasizer Nano; format: physicochemical; settings: 1% dispersion
# From the text: Also the high zeta potential ensures the stability of colloidal dispersions.
# [2] = Surface tension of water (surface activity); format: physicochemical
# [3] = Combing force on Diastron tensile tester after shampoo application; settings: shampoo containing MCBDC (2%), one application, as compared to placebo shampoo
# [4] = UV absorption of MCBDC; format: physicochemical
# From the text: MCDBC is obtained as practically odorless white paste and has solids content of 30% (Example 2). The product as such has absorbance (E 1%, 1 cm) of 130 at λ max of 306 nm in ethanol.
# Its molar extinction coefficient c is 28,000 when measured at same λ max
# The white pasty mass that is practically odorless had E1% 1 cm of 130 at λ max 306 nm in EtOH.
# [5] = Viscosity boosting in SLES/CAPB shampoo formulation; format: physicochemical
# Description: A typical placebo shampoo base was prepared with sodium lauryl ether sulphate (12%), cocoamidopropyl betaine (4%), EDTA disodium salt (0.1%), preservative (1%, phenoxy ethanol containing four parabens) and rest deionized water. […] All ingredients were mixed using a Silverson homogenizer thoroughly till a uniform homogeneous mixture was formed.
# The base shampoo based on sodium lauryl ether sulphate (2EO) and cocoamidopropyl betaine was prepared as described in Example 4.
# [6] = Hair protection against UV induced damage through rinse-off conditioner (combing force); settings: rinse-off conditioner with 2% MCBDC vs placebo conditioner
# Description: Double bleached European hair were shampooed with the placebo shampoo of Example 4 and conditioned according to the following protocol. The details of UV chamber and exposure conditions are given below.
# Placebo shampoo of Example 4 was applied for 1 minute to European hair and rinsed the tresses with water for one minute 25° C. with controlled finger movements. This was followed by conditioner application for one minute application time, one minute contact time and one and half minute for rinsing off with warm water (40° C.).
# Treated hair tresses were exposed to UV radiation with the help of UV lamp for 48 hours. UV exposed hair tresses were then subjected to combing force evaluation on Diastron tensile tester.
# Two tresses per treatment were used. The treated tresses were irradiated with UV chamber which is equipped with two tubes emitting UV light in short UV (254 nm) and long UV 315-400 nm) regions. Sankyo Denki G8TS tube with UV output of 2.5 W was used as short UV light source while Sankyo Denki F8T5BLB backlight—blue tube with UV output of 1.4 W was used as long UV light source. Washing and UV exposure was given in the following sequence for 50 h. UV exposed tresses were washed with isopropanol to remove the quaternary followed by combing force measurement on Diastron Tensile Tester (MTT 175).
# [7] = test system: P. aeruginosa, E. coli, S. aureus, Candida albicans and A. niger; experiment: CTFA challenge test, overall outcome; format: cell-based; settings: 30% aqueous paste
# From the text: It was challenge tested with both Gram negative, Gram positive bacteria and yeast and mold by the standard challenge test protocol recommended by CTFA. The test organisms used were P. aeruginosa, E. coli, S. aureus, Candida albicans and A. niger.
# (§1) Following strains of Gram positive, Gram negative bacteria and yeast and mold were used for the challenge test. Staphylococcus aureus ATCC 653, Escherichia coli ATCC 8739, Pseudomonas aeruginosa ATCC 15442, Candida albicans ATCC 10231, and Aspergillus niger ATCC 16404.
# (§2) The test is conducted in the six sterile containers each containing a fix equal amount of test sample. Each container was inoculated with a 1% of standardized Inoculum of the microorganism.
# (§3) The initial concentration of the viable microorganism in each test preparation is estimated based on the concentration of microorganism in each of the standardized Inoculum as determined by the plate count method.
# (§4) Each container is incubated at 25° C. The aliquot of sample of each container is removed at appropriate intervals of time 0 day, 24 hrs, 48 hrs, and 7 days, 14 days, 21 days and 28 days.
# [8] = test system: Escherichia coli ATCC 8739; experiment: Challenge test on aqueous paste (30%); format: cell-based; settings: 30% aqueous paste, 25° C.
# Description: as §1, §2, §3, §4
# [9] = test system: Aspergillus niger ATCC 16404; experiment: Challenge test on aqueous paste (30%); format: cell-based; settings: 30% aqueous paste, 25° C.
# Description: as §1, §2, §3, §4
# [10] = test system: Candida albicans ATCC 10231; experiment: Challenge test on aqueous paste (30%); format: cell-based; settings: 30% aqueous paste, 25° C.
# Description: as §1, §2, §3, §4
# [11] = test system: Staphylococcus aureus ATCC 653; experiment: Challenge test on aqueous paste (30%); format: cell-based; settings: 30% aqueous paste, 25° C.
# Description: as §1, §2, §3, §4
# [12] = test system: Pseudomonas aeruginosa ATCC 15442; experiment: Challenge test on aqueous paste (30%); format: cell-based; settings: 30% aqueous paste, 25° C.
# Description: as §1, §2, §3, §4
# [13] = Sensory evaluation of shampooed hair; settings: shampoo containing 2.0% MCBDC vs base shampoo, panel of 10
# Description: Sensory Evaluation of shampooed hair: The subjective evaluation was conducted by the panel of 10. The evaluator scored tresses of the scale of 1 to 2.
# [14] = Hair color protection (anti-fade) through rinse-off conditioner, Hunter L* a* b*; settings: rinse-off conditioner with MCBDC vs placebo, ten wash/UV cycles, five hours total UV exposure
# Description: They were dyed using L'Oreal's Burgundy color as per the protocol described by the dye manufacturer.
# Hair coloring (hair dyeing) process is performed as recommended by the marketed product. The color and the developer were mixed in ratio of 1:1 and shampooed hair tresses were treated with the same. The color and developer mixture was applied uniformly to the hair tresses and covered with the aluminum foil for twenty minutes. After this the hair tresses were washed with warm water. […] The ‘Placebo’ and ‘Treated’ hair tresses were exposed to UV radiation, total exposure of five hours through total to washing cycles comprising, shampooing, conditioning, rinsing and UV exposure of 30 mins at time using the equipment described in Example 5. The fading of color of the sets of hair tresses, Control, Placebo and Treated was measured on the Hunter instrument, Labscan XE spectrophotometer. The total color loss (ΔE) is assessed by the change in L* a* b* scale using the equation ΔE=[(ΔL)^2+(Δa)^2+(Δb)^2]^1/2.
# [15] = Substantivity (deposition) on hair tresses; settings: 0.5% aqueous solution/dispersion on hair tresses
molecule,measurement,setting,value
p-methoxy cinnamidopropyl behenyl dimethyl ammonium chloride [MCBDC],Zeta potential,[1],+47 mV
same,Drop in surface tension of water,[2],35 dynes
same,surface tension of water,"[2]; at 1.0%, 30° C., reduced from 72 Mn/m",35 Mn/m
same,"reduction in combing force, dry combing",[3],19.40%
same,"reduction in combing force, wet combing",[3],51.08%
same,molar extinction coefficient,[4]; at λ max 306 nm,"28,000"
same,"absorbance (E 1%, 1 cm)","[4]; λ max 306 nm in ethanol, product as such, paste with solids content 30%",130
same,change in viscosity of shampoo formulation,"[5]; MCBDC 0.5% to 2.0% in base (3000 cps, salt 0.7%), Brookfield spindle No 4, 12 rpm, 25° C.",linear increase in viscosity
same,viscosity of shampoo,"[5]; shampoo with 2% MCBDC, placebo shampoo 3000 cps","18,000 cps"
same,"reduction in combing force after UV exposure, dry combing",[6],about 30%
same,"reduction in combing force after UV exposure, wet combing",[6],about 30%
same,preservation outcome of challenge test,[7],self preserving
same,TVC E. coli,[8]; 0 hr,0.41 × 10^4 cfu/gm
same,TVC E. coli,[8]; 24 hr,<10 cfu/gm
same,TVC E. coli,[8]; 48 hr,<10 cfu/gm
same,TVC E. coli,[8]; 7 days,<10 cfu/gm
same,TVC E. coli,[8]; 14 days,<10 cfu/gm
same,TVC E. coli,[8]; 21 days,<10 cfu/gm
same,TVC E. coli,[8]; 28 days,<10 cfu/gm
same,TVC Asp. niger,[9]; 0 hr,0.78 × 10^5 cfu/gm
same,TVC Asp. niger,[9]; 24 hr,1.16 × 10^1 cfu/gm
same,TVC Asp. niger,[9]; 48 hr,2.03 × 10^2 cfu/gm
same,TVC Asp. niger,[9]; 7 days,<10 cfu/gm
same,TVC Asp. niger,[9]; 14 days,<10 cfu/gm
same,TVC Asp. niger,[9]; 21 days,<10 cfu/gm
same,TVC Asp. niger,[9]; 28 days,<10 cfu/gm
same,TVC C. albicans,[10]; 0 hr,0.6 × 10^3 cfu/gm
same,TVC C. albicans,[10]; 24 hr,<10 cfu/gm
same,TVC C. albicans,[10]; 48 hr,<10 cfu/gm
same,TVC C. albicans,[10]; 7 days,<10 cfu/gm
same,TVC C. albicans,[10]; 14 days,<10 cfu/gm
same,TVC C. albicans,[10]; 21 days,<10 cfu/gm
same,TVC C. albicans,[10]; 28 days,<10 cfu/gm
same,TVC S. aureus,[11]; 0 hr,3 × 10^6 cfu/gm
same,TVC S. aureus,[11]; 24 hr,<10 cfu/gm
same,TVC S. aureus,[11]; 48 hr,<10 cfu/gm
same,TVC S. aureus,[11]; 7 days,<10 cfu/gm
same,TVC S. aureus,[11]; 14 days,<10 cfu/gm
same,TVC S. aureus,[11]; 21 days,<10 cfu/gm
same,TVC S. aureus,[11]; 28 days,<10 cfu/gm
same,TVC Ps. Aeruginosa,[12]; 0 hr,0.43 × 10^5 cfu/gm
same,TVC Ps. Aeruginosa,[12]; 24 hr,4.16 × 10^4 cfu/gm
same,TVC Ps. Aeruginosa,[12]; 48 hr,4.16 × 10^4 cfu/gm
same,TVC Ps. Aeruginosa,[12]; 7 days,<10 cfu/gm
same,TVC Ps. Aeruginosa,[12]; 14 days,<10 cfu/gm
same,TVC Ps. Aeruginosa,[12]; 21 days,<10 cfu/gm
same,TVC Ps. Aeruginosa,[12]; 28 days,<10 cfu/gm
same,sensorial evaluation,[13],significant enhancement of sensory attributes
same,total color loss (ΔE),[14],Lower ΔE
"COc1cc(O)c(C(=O)c2ccccc2)cc1S(=O)(=O)O [B-4, Benzophenone-4]",amount deposited on hair (substantivity),[15],276 μg/g of hair
